Changes are numbered by the printed parent chain.
Legend:
Assay type in all cases: cell-based
[1] = target: T1, mBest2 (mouse bestrophin-2) (Mus musculus, UniProt Q8BGM5, F80R); assay: whole-cell patch clamp, inhibition of Cl current in HEK293
T1 sequence (Q8BGM5 1-508 F80R): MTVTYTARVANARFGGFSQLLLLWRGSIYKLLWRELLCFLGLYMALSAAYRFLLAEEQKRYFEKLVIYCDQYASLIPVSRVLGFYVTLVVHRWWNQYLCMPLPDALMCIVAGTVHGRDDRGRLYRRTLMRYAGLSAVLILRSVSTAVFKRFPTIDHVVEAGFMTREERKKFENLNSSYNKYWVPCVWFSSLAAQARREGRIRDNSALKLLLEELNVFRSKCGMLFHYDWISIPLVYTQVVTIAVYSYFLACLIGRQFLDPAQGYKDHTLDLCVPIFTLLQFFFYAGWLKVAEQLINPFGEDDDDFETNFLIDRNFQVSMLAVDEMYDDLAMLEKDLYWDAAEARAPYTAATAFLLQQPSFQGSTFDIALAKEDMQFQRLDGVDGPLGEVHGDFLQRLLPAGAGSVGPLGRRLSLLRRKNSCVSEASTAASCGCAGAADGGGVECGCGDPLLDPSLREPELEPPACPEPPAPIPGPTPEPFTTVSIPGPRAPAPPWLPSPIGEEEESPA

[2] = target: T2, mBest2 (mouse bestrophin-2) (Mus musculus, UniProt Q8BGM5, S79T); assay: whole-cell patch clamp, block of Cl current in HEK293
T2 sequence (Q8BGM5 1-508 S79T): T1 sequence (Q8BGM5 1-508 F80R) with S79T, R80F

[3] = target: T3, mBest2 (mouse bestrophin-2) (Mus musculus, UniProt Q8BGM5); assay: as above
T3 sequence (Q8BGM5 1-508): T1 sequence (Q8BGM5 1-508 F80R) with R80F

Ki [1] | IC50 [2] | IC50 [3] | SMILES
0.016 mM |  |  | O=S(=O)(O)c1cc(N=C=S)ccc1/C=C/c1ccc(N=C=S)cc1S(=O)(=O)O [DIDS]
 | 18.5 ± 2.7 mM | 9.8 ± 1.1 mM | N#CS [SCN]

From PMC2233901 (The Journal of General Physiology, 2004)
